{"source": "ChEMBL document CHEMBL1142079", "about": "“Quinoline derivative MC1626, a putative GCN5 histone acetyltransferase (HAT) inhibitor, exhibits HAT-independent activity against Toxoplasma gondii” (2007)", "key": {"Toxoplasma gondii [1]": {"system": "Toxoplasma gondii", "experiment": "Effect on apicoplasts in Toxoplasma gondii at 200 uM by DAPI staining relative to DMSO", "type": "functional"}, "Toxoplasma gondii [2]": {"system": "Toxoplasma gondii", "experiment": "Inhibition of Toxoplasma gondii in human foreskin fibroblasts at 100 uM relative to DMSO", "type": "functional"}, "Toxoplasma gondii [3]": {"system": "Toxoplasma gondii", "experiment": "Inhibition of Toxoplasma gondii in human foreskin fibroblasts relative to DMSO", "type": "functional, organism-based"}, "[4]": {"biological_target": "Histone acetyltransferase GCN5 (Saccharomyces cerevisiae S288c) (UniProt Q03330)", "sequence (Q03330 whole entry)": "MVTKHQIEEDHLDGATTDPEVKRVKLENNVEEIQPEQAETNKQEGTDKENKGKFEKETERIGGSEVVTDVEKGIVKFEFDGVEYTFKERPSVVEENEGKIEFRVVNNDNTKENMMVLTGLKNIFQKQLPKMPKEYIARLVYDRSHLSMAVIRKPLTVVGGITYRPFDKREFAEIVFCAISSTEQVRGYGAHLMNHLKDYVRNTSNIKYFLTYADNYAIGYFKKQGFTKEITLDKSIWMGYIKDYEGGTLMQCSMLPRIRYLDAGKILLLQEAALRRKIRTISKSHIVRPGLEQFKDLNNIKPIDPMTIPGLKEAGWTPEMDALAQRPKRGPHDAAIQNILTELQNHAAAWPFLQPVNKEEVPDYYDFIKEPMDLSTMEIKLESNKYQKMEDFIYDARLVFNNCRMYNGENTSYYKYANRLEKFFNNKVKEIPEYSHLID", "experiment": "Inhibition of Saccharomyces cerevisiae recombinant GCN5 assessed as histone H3 acetylation"}, "Toxoplasma gondii [5]": {"system": "Toxoplasma gondii", "experiment": "Decrease in acetylated histone H3 levels in Toxoplasma gondii tachyzoites after 3 days by immunoblotting", "type": "functional, organism-based"}}, "note": "Activity calls are given as the source filed them. No cut-off for these calls is given here.", "data": [{"smiles": "CCOC(=O)c1cc2ccccc2nc1C", "values": [{"measurement": "Activity", "setting": "Toxoplasma gondii [1]", "value": 52, "unit": "%"}, {"measurement": "inhibition at 100 µM", "setting": "Toxoplasma gondii [2]", "value": 50, "unit": "%"}, {"measurement": "Activity", "setting": "Toxoplasma gondii [3]", "value": "Dose-dependent effect"}, {"measurement": "Activity", "setting": "[4]", "value": "inactive"}, {"measurement": "Activity", "setting": "Toxoplasma gondii [5]", "value": "inactive"}]}, {"smiles": "C=CC/C=C\\C/C=C\\CCCCCCCc1cccc(O)c1C(=O)O", "values": [{"measurement": "Activity", "setting": "[4]", "value": "Active"}]}]}
